# PMC9968717, “Breakthrough: a first-in-class virtual simulator for dose optimization of ACE inhibitors in translational cardiovascular medicine” (Scientific Reports, 2023)
# Counter-ions that a name gives are not always drawn.
# How the values were obtained:
# [1] = dog, in vivo; cited from earlier work
# [2] = Animal safety monitoring of study dogs given oral benazepril; format: in vivo; settings: healthy beagles; benazepril PO 0.125 mg/kg q12h, 0.25 mg/kg q12h, 0.5 mg/kg q24h (crossover)
# Description: All study dogs received all oral doses of benazepril as intended. Dogs were monitored for adverse effects associated with benazepril labeling as well those associated with general animal welfare e.g., vomiting, diarrhea, inappetence, weakness/hypotension, fatigue, incoordination, hypercreatininemia.
# Nine purpose-bred laboratory beagles (5 castrated males and 4 spayed females), 40–42 months old, weighing 9.0–13.5 kg were randomized based on body weight and sex into three oral dosing groups of benazepril. Systemic and cardiovascular health of all dogs was confirmed prior to the study with physical examination, routine laboratory screening (complete blood count, serum biochemical analysis), blood pressure measurement, and echocardiography.
# This 35-day prospective study was divided into three periods with three different benazepril dosing groups: (A) 0.125 mg/kg q12hr PO, (B) 0.25 mg/kg q12hr PO, and (C) 0.5 mg/kg q24hr PO. All dogs received all treatments using a […] crossover (ABC/BCA/CAB) design. Dogs were sampled in the same order at each time point and exact time of sampling was recorded. […]
# Venous blood samples were collected from an external jugular or cephalic vein with a 1 inch, 20-gauge or 22-gauge needle attached to a 6 mL syringe. […] Samples for complete blood counts or serum chemistry panels were analyzed by the Iowa State Clinical Pathology Laboratory.
# ACE activity = settings: dogs, cited from earlier work; for Duration of ACE suppression: single dose 0.5 mg/kg
# [3] = NLME/QSP model fit of plasma benazeprilat pharmacokinetics after oral benazepril; format: in vivo, dogs (beagles); settings: beagle, dog, population estimate, beagles, read-out: Clearance rate of benazeprilat (ClI), fixed effect (converted)
# Protocol: The PK portion of the base model was a conventional 2-compartment mammillary model with saturable exchange between the central and peripheral compartments. Building on this initial model, several modifications of the PK structure were evaluated. First, several standard compartment variations were tested i.e., using 1-, 2-, or 3-compartment disposition functions. Overall, a 2-compartment PK model outperformed the other candidate models based on the precision of individual parameters and overall quality of fit. Second, non-specific (low affinity, high capacity) binding of benazeprilat to plasma proteins was represented by a 3rd compartment within the central compartment, i.e., representing the free circulation of benazeprilat. The volume of the non-specific binding compartment (Vns) is a representation of the relative binding capacity of benazeprilat which is distributed in plasma but is not freely circulating or interacting with ACE. […] As is typical, quantity of benazeprilat passed between compartments is called Im, n, for inhibitor, where indexes m and n represent origin and destination compartments, respectively. […] Doses are administered in benazepril hcl, but are measured as the metabolite-benazeprilat. […] Dogs were sampled in the same order at each time point and exact time of sampling was recorded. […] The benazepril dose was calculated to the nearest 1.25 mg increment. […]
# ACE = molecular target: T1, ACE (Canis lupus familiaris, UniProt A0A8I3S3I6); experiment: Michaelis–Menten model of ACE inhibition by benazeprilat within the QSP model fit; format: in vivo, dogs (beagles); settings: population estimate, beagles
# T1 construct: from tissue; host or cells: living healthy beagle dogs; ACE in free circulation (plasma) and in tissue
# T1 sequence (A0A8I3S3I6 31-1241): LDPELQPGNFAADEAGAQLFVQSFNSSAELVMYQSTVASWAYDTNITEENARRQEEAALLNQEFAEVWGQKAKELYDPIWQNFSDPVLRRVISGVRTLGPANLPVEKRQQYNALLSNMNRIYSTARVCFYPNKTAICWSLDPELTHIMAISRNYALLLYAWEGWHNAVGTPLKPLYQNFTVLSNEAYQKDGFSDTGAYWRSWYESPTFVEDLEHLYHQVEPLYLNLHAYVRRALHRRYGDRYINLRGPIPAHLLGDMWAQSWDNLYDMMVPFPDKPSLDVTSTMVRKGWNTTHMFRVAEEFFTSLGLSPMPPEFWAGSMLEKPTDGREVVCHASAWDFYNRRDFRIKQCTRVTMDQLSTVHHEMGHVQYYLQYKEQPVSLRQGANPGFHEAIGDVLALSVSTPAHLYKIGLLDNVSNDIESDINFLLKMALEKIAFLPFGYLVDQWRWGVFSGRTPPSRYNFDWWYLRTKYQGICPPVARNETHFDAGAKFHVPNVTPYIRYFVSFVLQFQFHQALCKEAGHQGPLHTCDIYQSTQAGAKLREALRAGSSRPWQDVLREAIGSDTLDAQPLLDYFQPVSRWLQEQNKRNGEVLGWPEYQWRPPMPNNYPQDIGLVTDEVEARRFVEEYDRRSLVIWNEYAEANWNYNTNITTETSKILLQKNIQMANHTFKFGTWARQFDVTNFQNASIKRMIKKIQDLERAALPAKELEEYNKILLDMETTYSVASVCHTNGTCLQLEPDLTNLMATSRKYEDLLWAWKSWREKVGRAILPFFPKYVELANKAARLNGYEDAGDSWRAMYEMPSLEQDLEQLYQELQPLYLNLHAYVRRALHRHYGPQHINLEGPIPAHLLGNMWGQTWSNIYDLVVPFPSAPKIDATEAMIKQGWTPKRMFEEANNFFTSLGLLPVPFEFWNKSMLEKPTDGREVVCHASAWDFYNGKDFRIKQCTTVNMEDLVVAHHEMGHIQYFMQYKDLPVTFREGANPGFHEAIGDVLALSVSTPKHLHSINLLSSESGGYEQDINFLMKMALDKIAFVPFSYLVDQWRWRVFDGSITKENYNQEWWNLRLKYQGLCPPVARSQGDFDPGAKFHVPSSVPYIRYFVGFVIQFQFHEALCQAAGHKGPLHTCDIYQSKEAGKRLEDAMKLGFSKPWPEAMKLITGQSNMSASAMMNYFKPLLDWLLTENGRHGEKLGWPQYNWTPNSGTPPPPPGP
# Description: Benazeprilat primary mechanism of action is inhibiting ACE to prevent the catalysis of AngI into AngII. To account for this mechanism, a logistic saturation model was first implemented. […] The distribution of ACE across tissue (ts) and free circulation (fr) was also considered. The nomenclature used throughout Eq. (3) is consistent with previous descriptions of the Michaelis–Menten model[26].3 E˙fr=-k-1·Efr·Sfr+k1·ESfr-k-3·Efr·Ifr+k3·EIfr+k2·ESfrE˙Sfr=k-1·Efr·Sfr-k1·ESfr-k2·ESfrE˙Ifr=k-3·Efr·Ifr-k3·EIfrE˙ts=-k-1·Ets·Sts+k1·ESts-k-3·Ets·Its+k3·EIts+k2·EStsE˙Sts=k-1·Ets·Sts-k1·ESts-k2·EStsE˙Its=k-3·Ets·Its-k3·EIts
# Figure 3 Detailed model diagram. Detailed diagram of the final model structure. […] A Michaelis–Menten kinetic model of inhibitor, substrate, and enzyme interaction was used to describe the competitive inhibition of ACE by benazeprilat. k3 and k-3 were the parameters governing ACE-benazeprilat (enzyme-inhibitor) association and dissociation, while k1 and k-1 determined the rate of ACE-angiotensin (enzyme–substrate) association and dissociation. k2 controlled the production rate of angiotensin II from angiotensin I via ACE. […]
# The recorded data (yij) were imported into Monolix […] (Lixoft, France) and used to estimate population parameters (μ) and variance via the stochastic approximation expectation maximization algorithm (SAEM)[46]. […]
# [4] = single PO dose, ref 2 (b6), ref 17 King et al.
clearance [3],"Rate of ACE-benazeprilat dissociation in vivo, scaled (k3s), fixed effect (ACE)",SMILES,Dose up to which safety has been established [1],Adverse effects [2],Serial complete blood counts and chemistry panels: hematologic or biochemical abnormalities [2],Dosage from which ACE inhibition in plasma was independent of dosage (ACE activity; [4]),Duration of suppression of ACE activity (ACE activity; [4]),Duration of ACE suppression (ACE activity)
,,"CCOC(=O)[C@H](CCc1ccccc1)N[C@H]1CCc2ccccc2N(CC(=O)O)C1=O [benazepril, Benazepril hydrochloride]",up to 1 mg/kg q24h,No adverse effects were observed,no evidence of hematologic or biochemical abnormalities,≥ 0.25 mg/kg,up to 24 h,< 12 h
455 mL/min,7.0 s⁻¹,O=C(O)CN1C(=O)[C@@H](N[C@@H](CCc2ccccc2)C(=O)O)CCc2ccccc21 [benazeprilat],,,,,,
,,CCOC(=O)[C@H](CCc1ccccc1)N[C@@H](C)C(=O)N1CCC[C@H]1C(=O)O [enalapril],,,,,,< 12 h
